Source: patent USRE39866E1 (Telik, Inc., priority 1997, dated 2007)
Where two headings read alike, the source gives them in different places.

Columns and labels:
[1] = target: T1, insulin receptor on human lymphocytic cell line IM-9 (Homo sapiens, UniProt P06213); test: insulin receptor agonist activity on whole IM-9 cells (lysate ELISA); assay type: cell-based
T1 construct: on whole cells, i.e., on the human lymphocytic cell line IM-9; endogenous in cells; host or cells: IM-9 human lymphocytic cell line
Procedure: The cells were then lysed in 0.5% Tween 20 and lysates analyzed in an ELISA assay as described in paragraph A, without the steps of incubation with ATP.

[2] = target: T2, human insulin receptors (hIR) (Homo sapiens, UniProt P06213); test: insulin receptor kinase autophosphorylation assay (captured hIR, anti-phosphotyrosine ELISA); assay type: biochemical; conditions: for agonist activity in IR kinase assay (in words): samples as screened; for activity in IR kinase assay after synthesis or purification: synthesized or extensively purified / HPLC-purified material
T2 construct: partially purified from placental extracts or from cell line IM-9; from tissue; host or cells: human placental extracts or cell line IM-9
Procedure: This assay is a modified form of that described in Hagino, H. et al. Diabetes (1994) 43:274-280. […] The partially purified hIRs were captured into microplate wells by incubating them for 90 minutes with wells coated with a monoclonal antibody to hIR. […] After 60 minutes, the wells were washed, and then treated for 60 minutes with biotinylated antibody directed against phosphotyrosine (PY-20) and unbound materials again washed away. The wells were then incubated with a conventional streptavidin peroxidase system for 30 minutes to assess the level of phosphorylated tyrosine.

[3] = tested on: Glut4 transporter in 3T3-L1 adipocytes; test: distribution of Glut4 transporter in 3T3-L1 adipocytes (immunofluorescence); assay type: cell-based; conditions: 15 minutes incubation
Excerpt: The results were visualized under a fluorescent microscope.

human insulin receptor = target: T3, human insulin receptor (Homo sapiens, UniProt P06213); test: phosphorylation of artificial substrate poly(Glu4Tyr) by activated receptor, labeled ATP; assay type: biochemical
T3 construct: partially purified from placental extracts or from cell line IM-9; from tissue; host or cells: human placental extracts or cell line IM-9

3T3-L1 fibroblast cells [4] = test: glucose transport in 3T3-L1 cell line; assay type: cell-based
Excerpt: (§1) Insulin also enhances glucose transport in this cell line.

3T3-L1 fibroblast cells [5] = test: differentiation of 3T3-L1 fibroblasts to adipocyte-like morphology (Oil Red O uptake); assay type: cell-based
Excerpt: as §1

[6] = target: T4, recombinantly produced β chain lacking the insulin-binding domain (Homo sapiens, UniProt P06213); test: phosphorylation of substrate peptide Raytide by recombinant beta chain kinase; assay type: biochemical; conditions: 25 μM
T4 construct: purchased Stratagene, Inc
Procedure: The ability of this kinase to phosphorylate a substrate peptide (Raytide from Oncogene Sciences) is stimulated by TER12 at 25 μM.

T3 sequence (P06213 763-1382 limits assumed): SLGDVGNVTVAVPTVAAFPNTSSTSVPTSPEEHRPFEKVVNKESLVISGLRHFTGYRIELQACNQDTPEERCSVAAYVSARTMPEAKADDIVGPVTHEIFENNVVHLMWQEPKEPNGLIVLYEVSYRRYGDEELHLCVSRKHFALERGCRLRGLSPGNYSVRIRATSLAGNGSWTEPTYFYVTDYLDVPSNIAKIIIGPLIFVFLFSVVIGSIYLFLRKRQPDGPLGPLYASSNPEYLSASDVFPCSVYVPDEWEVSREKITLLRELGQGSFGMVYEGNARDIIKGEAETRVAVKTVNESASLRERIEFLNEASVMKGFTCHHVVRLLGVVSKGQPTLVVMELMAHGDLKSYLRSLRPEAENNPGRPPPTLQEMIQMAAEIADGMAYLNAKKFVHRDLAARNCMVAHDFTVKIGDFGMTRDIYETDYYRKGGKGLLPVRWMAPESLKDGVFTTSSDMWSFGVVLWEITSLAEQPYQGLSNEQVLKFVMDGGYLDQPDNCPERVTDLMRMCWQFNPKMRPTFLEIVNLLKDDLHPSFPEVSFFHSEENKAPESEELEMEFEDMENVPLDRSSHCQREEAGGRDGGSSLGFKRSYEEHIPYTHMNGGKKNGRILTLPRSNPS
T3 sequence (P06213 28-758 partner limits assumed): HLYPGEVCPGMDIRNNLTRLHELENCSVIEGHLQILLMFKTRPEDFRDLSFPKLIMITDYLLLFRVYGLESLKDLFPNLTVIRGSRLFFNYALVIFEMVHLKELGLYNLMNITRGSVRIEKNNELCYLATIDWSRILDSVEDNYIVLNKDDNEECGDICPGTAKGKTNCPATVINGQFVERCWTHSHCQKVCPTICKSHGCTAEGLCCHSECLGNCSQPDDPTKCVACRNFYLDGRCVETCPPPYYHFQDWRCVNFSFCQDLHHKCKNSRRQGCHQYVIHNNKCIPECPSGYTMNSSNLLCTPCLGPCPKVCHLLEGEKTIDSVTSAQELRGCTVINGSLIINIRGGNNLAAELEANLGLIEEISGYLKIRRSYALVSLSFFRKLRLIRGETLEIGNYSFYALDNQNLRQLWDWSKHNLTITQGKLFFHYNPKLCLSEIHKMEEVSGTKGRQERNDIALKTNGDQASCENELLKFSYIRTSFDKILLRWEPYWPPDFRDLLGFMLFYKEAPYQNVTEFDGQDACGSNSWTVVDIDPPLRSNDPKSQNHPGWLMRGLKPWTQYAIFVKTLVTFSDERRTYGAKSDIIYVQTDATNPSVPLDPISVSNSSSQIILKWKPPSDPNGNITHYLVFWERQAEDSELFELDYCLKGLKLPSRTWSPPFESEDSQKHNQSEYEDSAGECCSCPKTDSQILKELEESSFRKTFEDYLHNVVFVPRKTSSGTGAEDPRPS
T2 sequence (P06213 763-1382 limits assumed): as the sequence (P06213 763-1382 limits assumed) above
T2 sequence (P06213 28-758 partner limits assumed): as the sequence (P06213 28-758 partner limits assumed) above
T1 sequence (P06213 763-1382 limits assumed): as the sequence (P06213 763-1382 limits assumed) above
T1 sequence (P06213 28-758 partner limits assumed): as the sequence (P06213 28-758 partner limits assumed) above
T4 sequence (P06213 763-1382 limits assumed): as the sequence (P06213 763-1382 limits assumed) above

Row | enhancement of insulin-stimulated autophosphorylation of insulin receptor ([1]; intact IM-9 cells) | activity in IR kinase assay of insoluble compound ([2]; insoluble compound after washing sample with aqueous sodium carbonate) | EC50 ([2]; read-out: EC50 in in vitro autophosphorylation assay) | agonist activity in IR kinase assay (in words) [2] | activity in IR kinase assay after synthesis or purification [2] | percent of maximal phosphorylation (human insulin receptor; 0.5 nM insulin plus 20 μM TER12 sample) | percent of maximal phosphorylation (human insulin receptor; 5 nM insulin plus TER12 sample) | percent of maximal insulin-stimulated activity (human insulin receptor; about 20 μM sample calculated as TER12, no insulin) | increase of basal insulin receptor kinase activity ([1]; 5 minutes exposure, sample containing 20 μM TER12) | increase of insulin stimulated insulin receptor kinase activity ([1]; 5 minutes exposure, sample containing 20 μM TER12, with insulin) | increase in phosphorylation on addition to insulin ([2]; 60 μM sample added to hIR contacted with 0.3 nM insulin) | stimulation of autophosphorylation ([2]; absence of insulin, 20 μM of sample composed mainly of TER12) | EC50 ([2]; read-out: EC50 for enhancing insulin stimulation, sample calculated as TER12) | stimulation of kinase phosphorylation of Raytide [6] | Compound | redistribution of Glut4 [3] | stimulation of glucose transport (3T3-L1 fibroblast cells [4]; sample alone) | effect on insulin-stimulated glucose transport (3T3-L1 fibroblast cells [4]; with insulin) | effect on insulin-induced differentiation (3T3-L1 fibroblast cells [5]; 20 μM with insulin) | effect on differentiation (3T3-L1 fibroblast cells [5]; sample alone)
1 | enhanced the activity of insulin | less active | 8 µM | agonist activity | retained its activity | – | – | – | – | – | – | – | – | – | COc1ccccc1NC(=O)C(N=Nc1ccc(-c2nc3ccc(C)c(S(=O)(=O)[O-])c3s2)cc1S(=O)(=O)[O-])C(C)=O.[Na+].[Na+] (stereo not drawn) [TER3938, Direct Yellow 27] | – | – | – | – | –
2 | – | – | – | – | – | – | – | – | – | – | – | – | – | – | insulin | dramatic redistribution of Glut4 to the membrane surfaces | – | – | – | –
3 | – | – | – | apparent agonist activity | active | 120% | 140% | 75% | two-fold | five-fold | approximately three-fold | over five-fold | ~20 µM | stimulated | O=C(Nc1cc(S(=O)(=O)[O-])cc2cc(S(=O)(=O)[O-])c(N=Nc3cc(Nc4nc(Cl)nc(Nc5ccc(S(=O)(=O)[O-])cc5)n4)ccc3S(=O)(=O)[O-])c(O)c12)c1ccccc1.[Na+].[Na+].[Na+].[Na+] [TER12, Cibacron Brilliant Red 3BA] | – | failed to stimulate glucose transport significantly | enhanced the ability of insulin to do so | enhances the differentiating effect of insulin | does not appear to effect differentiation
